# Measured values as given in patent US20210121440A1, “ACNE TREATMENT” (priority 2003, published 2021).
# Key:
# [1] = test system: patients having acne papulopustolosa; assay: Clinical judgement of number of lesions and degree of severity index (Allen and Smith) in acne patients treated orally; assay type: in vivo, human
# Description: (§1) For treating the inflammatory acne 10 patients having acne papulopustolosa (m:f 6:4, age 19±5 years) were treated orally with a selective 5-lipoxygenase inhibitor, namely with (±)-1-1.benzo[b]thien—2-ylethyl)-1-hydroxyurea (Zileuton) 4×600 mg/d p.o. for a period of three months. The number of lesions and the general degree of severity index according to Allen and […] (Allen B S, Smith J G: Various parameters for grading acne. Arch Dermatol. 1982; 118: 23-25) were clinically judged. Moreover, the surface lipids using Sebumeter® and the liver enzymes in the serum were determined at the beginning of the study, in the 2nd, 4th, 8th and 12th weeks of treatment and 2 weeks after completion of the therapy. The LTB4 detection in the blood by radio-immuno-assay and the lipid fractions in the serum by chromatography were examined at the beginning and in the 12th week of treatment. The patients were photographed at the beginning and at the end of the treatment. The degree of severity index of acne decreased continuously and dependent on the time (41±28% of the initial value in the 12th week of treatment; p<0.05). […] The degree of clinical improvement strongly correlated with the reduction of the total lipids in the sebum (p=0.0009, r^2=0.81) and the free fatty acid (p=0.0003, r^2=0.82). […] To sum up, thus first indirect proofs could be furnished for a genuine inflammatory etiology of acne.
# surface lipids = assay: Surface lipids using Sebumeter; assay type: in vivo, human; details: 4×600 mg/d p.o. for three months
# Description: as §1
# LTB4 in the blood = assay: LTB4 detection in the blood by radio-immuno-assay; assay type: in vivo, human; details: beginning vs 12th week of treatment; 4×600 mg/d p.o.
# Description: as §1
# [2] = test system: total lipids and pro-inflammatory lipid fractions in the sebum; assay: Lipids and lipid fractions in the sebum by chromatography; assay type: in vivo, human; details: 12th week of treatment, 4×600 mg/d p.o.
# Description: as §1
# [3] = test system: patients having acne papulopustolosa; assay: Side-effects in treated acne patients; assay type: in vivo, human; details: 4×600 mg/d p.o. for three months; 10 patients
# Description: as §1, with “of acne. […]” for “of acne.”
# patients = details: oral administration; especially older patients having an impaired renal function; cited from earlier work
Compound,response of comedones ([1]; 4×600 mg/d p.o. for three months),"decrease of the number of inflammatory lesions up to ([1]; 4×600 mg/d p.o. for three months, p<0.01)","degree of severity index of acne, % of the initial value ([1]; 12th week of treatment, 4×600 mg/d p.o., 10 patients, p<0.05)",all examined parameters during follow-up ([1]; two-weeks' follow-up phase after completion of the therapy),surface lipids (surface lipids),LTB4 in the blood (LTB4 in the blood),decrease of lipoperoxides in the sebum [2],decrease of pro-inflammatory free fatty acids in the sebum [2],decrease of total lipids in the sebum ([2]; p<0.05),subjective and objective side-effects [3],disadvantageous effects observed in clinical tests (patients)
"CC(c1cc2ccccc2s1)N(O)C(N)=O (racemic) [Zileuton, (±)-1-(1-benzo[b]thien-2-ylethyl)-1-hydroxy-urea]",comedones did not respond,29±24%,41±28%,remained practically unchanged,not influenced,not influenced,26±30%,22±18%,35±51%,Neither subjective nor objective side-effects were noticed,–
CC(C(=O)O)c1ccc2oc(-c3ccc(Cl)cc3)nc2c1 (centres unmarked) [benoxaprofen],–,–,–,–,–,–,–,–,–,–,"a photosensitivity, exzema, milii, onycholysis and a hepatotoxicity with jaundice"
